Results from publication PMC8880385 (Pharmaceuticals, 2022).

Tests used:
[1] = tested on: Brugia pahangi adult females; experiment: In vitro motility assay with adult female Brugia pahangi (Worminator); settings: for IC50 / inhibition at 1 µM: Brugia pahangi, 72 h; for IC50: read-out: Brugia Adult Females Inhibition of Motility Day 3 IC50; for inhibition at 1 µM: read-out: Brugia Adult Females Inhibition of Motility Day 3 @ 1 µM, 1 µM, Day 3
O. volvulus pre-adult L5 [2] = experiment: O. volvulus pre-adult (Ov L5) motility assay; type: cell-based, Onchocerca volvulus; settings: Onchocerca volvulus
Protocol: O. volvulus adult male and female worms, which can only be obtained from infected individuals, are not readily accessible for ex vivo studies. Moreover, since there is no small animal model that can maintain infections by O. volvulus, a recently developed in vitro system was used to evaluate the macrofilaricidal effects on pre-adult worms. All compounds except for 04 were tested in this O. volvulus pre-adult/L5 motility and viability assay.
(§1) Briefly, Ov L3 larvae were cultured to the pre-adult/L5 stage in vitro as described by Voronin et al., 2019 [45]. Once larvae reached the L5 stage (after at least 70 days in culture), 8–10 Ov L5 were moved to new transwell inserts in a 24-well plate containing 0.5 mL Ov L4-CMS media seeded with a 3 × 10^4/well Human Umbilical Vein Endothelial Cells (HUVEC) monolayer. Duplicate wells were treated with 1 and/or 10 µM of compound. Ov L5 were exposed to compounds for 14 days (exchanged 50% of media with fresh compound every two days) and then cultured with new media without compound, exchanging 50% of media every 2–3 days, up to day 36. Control Ov L5 were treated with 0.05% DMSO. Concentrations were chosen based on activity in the B. pahangi female motility assay. Motility was assessed visually and ranked on a 0–100% scale every 2–3 days over the course of the assay. At the end of the motility assay, Ov L5 viability was measured by 3-(4,5-dimethylthiazol-2-yl)-2,5-diphenyltetrazolium bromide (MTT) assay. Ov L5 were incubated with 0.1% MTT in PBS at 37 °C for 1 h then visually inspected for blue coloration indicating MTT reduction. Worms were considered dead if <50% of the worm was stained blue, and worms were considered alive if >50% of the worm was stained blue.

O. volvulus pre-adult L5 [3] = experiment: Ov L5 viability by endpoint MTT assay; type: cell-based, Onchocerca volvulus; settings: 1 µM
Protocol: as §1, with “Concentrations were chosen based on activity in the B. pahangi female motility assay.” left out

[4] = Gerbil liver microsome stability assay; type: in vitro ADME; settings: for CLint: gerbil liver microsomes; for half-life at 1 µM: pH 7.4, 1 µM compound, 0.5 mg/mL microsomes, read-out: Gerbil Liver Microsome T1/2
Protocol: Microsomal stability was tested using 1 µM of each test compound in a 96-well plate containing 0.5 mg/mL gerbil liver microsomes, 1 mM NADPH and/or UDPGA with alamethicin in a buffer of 100 mM potassium phosphate with 3 mM magnesium chloride at pH 7.4. Verapamil was used as a positive control. Reactions were incubated at 37 °C, and 100% acetonitrile with 0.1% formic acid was added at 0, 15, 30 and 60 min timepoints to stop the reaction. Samples were then separated over a Waters Atlantis T3 dC18 reverse phase HPLC column with 0.1% formic acid in water and 0.1% formic acid in acetonitrile. Samples were analyzed using an AB Sciex API 4000 LC–MS/MS.

O. ochengi adult females = experiment: O. ochengi adult female viability (MTT) assay; type: cell-based; settings: Onchocerca ochengi, 168 h; Day 7, MTT; read-out: O. ochengi Adult Females Inhibition of Survival Day 7 IC50
Text: (§2) As humans are the only hosts for O. volvulus which are unavailable for screening, drug discovery relies on the surrogate filarial parasites Brugia spp. and cattle Onchocerca spp. Prioritized compounds from the Brugia worm screens were further tested with female and male adult O. ochengi as well as O. ochengi and L. loa mf.
(§3) For these assays, O. ochengi adults were extracted from the subcutaneous nodules of infected cow skins purchased from the local slaughterhouse (Douala, Littoral Region, Cameroon) and incubated in 4 mL complete culture media comprised of RPMI-1640 (Sigma-Aldrich), 5% newborn calf serum, 200 units/mL penicillin, 200 μg/mL streptomycin and 2.5 μg/mL amphotericin B (Sigma-Aldrich) in 12-well plates overnight to validate sterility prior to the assays. Four to eight O. ochengi adult masses were treated individually the following day with a serial dilution of each compound, and controls were treated with 1% DMSO. While in culture, the male worms normally egress from the nodules into the surrounding media and thus can be monitored in parallel for motility. The O. ochengi adult masses were incubated at 37 °C with 5% CO2 for the duration of the assay. Male motility within each well was visually scored every day and over 5 days after compound addition, and female viability within the nodules was assessed by MTT after 7 days as previously described. The O. ochengi adult masses containing female worms were individually placed in wells of a 48-well plate with 0.5 mL of 0.5 mg/mL MTT in PBS and incubated at 37 °C for 30 min. […] Prism 4.0 for Windows was used to calculate IC50s.

in vitro = settings: dog, MDCK-MDR1
Protocol: Permeability assays were conducted using 5 µM of each test compound with digoxin as a control. […] electrical resistance was used to verify the integrity of the MDCK-MDR1 monolayer. After compound addition, plates were incubated at 37 °C with 5% CO2 for 1 h. Samples were analyzed by LC–MS/MS and net flux ratio was calculated using basal-to-apical and apical-to-basal permeability.

O. ochengi adult males = experiment: O. ochengi adult male motility assay; type: cell-based; settings: Onchocerca ochengi, 120 h; for IC50: read-out: O. ochengi Adult Males Inhibition of Motility Day 5 IC50; for inhibition at 10 µM: single concentration 10 µM, read-out: O. ochengi Adult Males Inhibition of Motility Day 5
Text: as §2
as §3, with “min. Female viability was visually rated by the degree of formazan production (live worms have blue coloration) in the female worm within the treated nodule versus control worm masses.” for “min.”

O. ochengi mf = experiment: O. ochengi microfilariae motility assay; type: cell-based, Onchocerca ochengi; settings: 10 µM; for inhibition at 10 µM: Onchocerca ochengi, 120 h, Day 5
Protocol: (§4) To assess the effects of the compounds on O. ochengi mf, the mf were harvested from infected cow skin and cultured (10–15 mf per well) in 100 µL media in 96-well plates with a confluent feeder layer of monkey kidney epithelial cells (MK2) as previously described. […] All compounds were also counter-screened with L. loa mf collected from infected individuals with approval from the University of Buea (IRB approval # 964-19). Mf were separated from blood cells using a Percoll gradient as previously described and set up for assays (10–15 mf per well).

Loa loa mf = experiment: Loa loa microfilariae motility counter-screen; type: cell-based; settings: for inhibition at 10 µM: Loa loa, 120 h, Day 5
Protocol: as §4

[5] = Day 36 @ 1 µM, 14 days drug then washout

In the case of `Cc1cc(/C=C/c2ccc3ccccc3[n+]2C)c(C)n1-c1ccccc1.[I-]` [Analog 01, 2-[(E)-2-(2,5-dimethyl-1-phenyl-1H-pyrrol-3-yl)ethenyl]-1-methylquinolin-1-ium iodide], the “Brugia Adult Females Inhibition of Motility Day 3 @ 1 µM” value [1] is reported as 99%, the IC50 [1] is reported as 8 nM and the “Brugia Adult Females Inhibition of Motility Day 3 IC50” value [1] is reported as “sub-micromolar range”. The inhibition at 1 µM (O. volvulus pre-adult L5 [2]; [5]) was greater than 90%, the “O. volvulus L5 % inhibition of viability Day 37 (MTT assay)” value (O. volvulus pre-adult L5 [3]) was 87% and the CLint [4] was 610.8 µL/min/mg Protein. It also gave a half-life at 1 µM [4] of 2.3 min, an IC50 (O. ochengi adult females) of 790 nM and a Papp A→B (in vitro) of 0.1 ×10⁻⁶ cm/s. For the same molecule, the Papp B→A (in vitro) was 61.3 ×10⁻⁶ cm/s, the IC50 (O. ochengi adult males) was 960 nM and the “O. ochengi Mf Inhibition of Motility Day 5 @ 10 µM” value (from here on “O. ochengi Mf Inhibition”) (O. ochengi mf) was “completely inhibited”. For the same molecule, the inhibition at 10 µM (O. ochengi mf) was 100%, the “Loa loa Mf Inhibition of Motility Day 5 @ 10 µM” value (shortened to “Loa loa Mf Inhibition”) (Loa loa mf) was “completely inhibited” and the inhibition at 10 µM (Loa loa mf) was 100%.

For `Cc1ccc2c(ccc(/C=C/c3cc(C)n(-c4ccccc4)c3C)[n+]2C)c1.[I-]` [Analog 02, 2-[(E)-2-(2,5-dimethyl-1-phenyl-1H-pyrrol-3-yl)ethenyl]-1,6-dimethylquinolin-1-ium iodide], the “Brugia Adult Females Inhibition of Motility Day 3 @ 1 µM” value [1] was 83%, the inhibition at 1 µM [1] was greater than 70% and the IC50 [1] was 1 nM. For the same molecule, the “Brugia Adult Females Inhibition of Motility Day 3 IC50” value [1] was “sub-micromolar range”, the inhibition at 1 µM (O. volvulus pre-adult L5 [2]; 384 h, Day 16 @ 1 µM, assay stopped on day 16 (contamination)) was 90% and the inhibition at 1 µM (O. volvulus pre-adult L5 [2]; [5]) was greater than 90%. The CLint [4] was 541.8 µL/min/mg Protein, the half-life at 1 µM [4] was 2.6 min and the IC50 (O. ochengi adult females) was 700 nM. For the same molecule, the Papp A→B (in vitro) was 0.1 ×10⁻⁶ cm/s, the Papp B→A (in vitro) was 51.2 ×10⁻⁶ cm/s and the IC50 (O. ochengi adult males) was 3080 nM. For the same molecule, the “O. ochengi Mf Inhibition” value (O. ochengi mf) was “completely inhibited”, the inhibition at 10 µM (O. ochengi mf) was 100% and the “Loa loa Mf Inhibition” value (Loa loa mf) was “completely inhibited”. The inhibition at 10 µM (Loa loa mf) was 100%.

In the case of `C[n+]1c(/C=C/c2cnn(-c3ccccc3)c2)ccc2ccccc21.[I-]` [Analog 04, 1-methyl-2-[(E)-2-(1-phenyl-1H-pyrazol-4-yl)ethenyl]quinolin-1-ium iodide], the inhibition at 1 µM [1] is reported as 26%, the inhibition at 10 µM (O. ochengi adult males) is reported as 100% and the “O. ochengi Mf Inhibition” value (O. ochengi mf) is reported as “little to no effect”. The inhibition at 10 µM (O. ochengi mf) was 0%, the “Loa loa Mf Inhibition” value (Loa loa mf) was “little to no effect” and the inhibition at 10 µM (Loa loa mf) was 38%.

In the case of `Cc1c(/C=C/c2ccc3ccccc3[n+]2C)cnn1-c1ccccc1.[I-]` [Analog 03, 1-methyl-2-[(E)-2-(5-methyl-1-phenyl-1H-pyrazol-4-yl)ethenyl]quinolin-1-ium iodide], the inhibition at 1 µM [1] is reported as 3%, the inhibition at 10 µM (O. volvulus pre-adult L5 [2]; 672 h, Day 28 @ 10 µM) is reported as 97% and the CLint [4] is reported as 280.2 µL/min/mg Protein. The half-life at 1 µM [4] was 4.9 min, the IC50 (O. ochengi adult females) was 5180 nM and the Papp A→B (in vitro) was 1.3 ×10⁻⁶ cm/s. The Papp B→A (in vitro) was 9.1 ×10⁻⁶ cm/s, the IC50 (O. ochengi adult males) was 1540 nM and the “O. ochengi Mf Inhibition” value (O. ochengi mf) was “little to no effect”. The inhibition at 10 µM (O. ochengi mf) was 0%, the “Loa loa Mf Inhibition” value (Loa loa mf) was “little to no effect” and the inhibition at 10 µM (Loa loa mf) was 13%.

For `Cc1nn(-c2ccccc2)c(C)c1/C=C/c1ccc2ccccc2[n+]1C.[I-]` [Analog 05, 2-[(E)-2-(3,5-dimethyl-1-phenyl-1H-pyrazol-4-yl)ethenyl]-1-methylquinolin-1-ium iodide], the “Brugia Adult Females Inhibition of Motility Day 3 @ 1 µM” value [1] was 81%, the inhibition at 1 µM [1] was greater than 70% and the IC50 [1] was 405 nM. For the same molecule, the “Brugia Adult Females Inhibition of Motility Day 3 IC50” value [1] was “sub-micromolar range”, the inhibition at 1 µM (O. volvulus pre-adult L5 [2]; [5]) was greater than 90% and the “O. volvulus L5 % inhibition of viability Day 37 (MTT assay)” value (O. volvulus pre-adult L5 [3]) was 76%. For the same molecule, the CLint [4] was 179.88 µL/min/mg Protein, the half-life at 1 µM [4] was 7.7 min and the Papp A→B (in vitro) was 0.7 ×10⁻⁶ cm/s. For the same molecule, the Papp B→A (in vitro) was 6.8 ×10⁻⁶ cm/s, the inhibition at 10 µM (O. ochengi adult males) was 86% and the “O. ochengi Mf Inhibition” value (O. ochengi mf) was “little to no effect”. The inhibition at 10 µM (O. ochengi mf) was 0%, the “Loa loa Mf Inhibition” value (Loa loa mf) was “little to no effect” and the inhibition at 10 µM (Loa loa mf) was 38%.
